Experimental findings from ChEMBL document CHEMBL1201862, “PubChem BioAssay data set” (2004) are described below.

Calls of active or inactive are those of the source.

Experiment [1] deals with Beta-galactosidase (Escherichia coli, UniProt Q8VNN2). The experiment can be described thus: Dose response counterscreen for EBI2 assay utilizing the enzyme, b-galactosidase. In kind it is functional. On the technique in general: A counterscreen serves to expose hits that act by an unwanted route or on another target.
Experiment [2] in a line: NIH3T3 fibroblast cytotoxicity, dose response, cytotoxicity control for PglD inhibitor project, cell-based, CellTiter-Glo luminescence, dry powder (AID 652044). The experiment is classed as functional. On the technique in general: ATP-based viability assays read luminescence as a measure of living cells.
The nature of experiment [3]: cells. In kind it is functional, cell-based.
The target in experiment [4] is T1, Trace amine-associated receptor 1 (Homo sapiens, UniProt Q96RJ0). Description: Counterscreen for agonists of the human trace amine associated receptor 1 (hTAAR1): Fluorescence-based cell-based high throughput dose response assay to identify hTAAR1 agonist that also desensitize TAAR1 receptor response. In kind it is functional.
In experiment [5] the target is T1, Trace amine-associated receptor 1. The experiment can be described thus: Fluorescence-based cell-based high throughput dose response assay to identify agonists of the human trace amine associated receptor 1 (TAAR1). In kind it is functional.
Experiment [6] can be described thus: cells. In kind it is functional, cell-based. This is another data set of the same source.
Experiment [7] addresses Mu-type opioid receptor (Homo sapiens, UniProt P35372). Description: Late-stage results from the probe development effort to identify antagonists of OPRK1: luminescence-based cell-based dose response OPRM1 counterscreen. In kind it is functional.
Experiment [8] addresses Delta-type opioid receptor (Homo sapiens, UniProt P41143). The experiment can be described thus: Late-stage results from the probe development effort to identify antagonists of OPRK1: fluorescence-based cell-based dose response OPRD1 counterscreen. The experiment is classed as functional.
The target of experiment [9] is Fructose-bisphosphate aldolase (Mycobacterium tuberculosis, UniProt P9WQA3). Description: Fluorescence-based biochemical high throughput dose response assay for inhibitors of the fructose-bisphosphate aldolase (FBA) of M. tuberculosis. In kind it is functional.
For experiment [10], the system named is HEK293. Description: HEK293T cell cytotoxicity, dose response, cytotoxicity control, ATP luminescence, cherry-pick samples (AID 687005).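 Also: cells exposed to compound for 48 hours.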 The experiment is classed as functional, cell-based. The conditions noted are these: Homo sapiens.
A short description of experiment [11]: HEK293 Cytotoxicity Assay Measured in Cell-Based System Using Plate Reader - 7071-01_Inhibitor_Dose_CherryPick_Activity_Set2. The experiment is classed as functional.
Experiment [12] concerns the target Protein Wnt-3a (Mus musculus, UniProt P27467). The experiment can be described thus: SAR analysis of small molecule antagonists of Gli-SUFU in a Wnt3a luminescent reporter assay. The experiment is classed as functional. In general terms: Reporter assays use an easily measured gene product as a stand-in for the process of interest.
The target in experiment [13] is Beta-lactamase (Salmonella choleraesuis (strain SC-B67), UniProt Q5J463). The experiment can be described thus: Epi-absorbance-based counterscreen for selective VIM-2 inhibitors: dose response biochemical high throughput screening assay to identify inhibitors of TEM-1 serine-beta-lactamase.
For experiment [14], the target named is T2, Beta-lactamase (Pseudomonas aeruginosa, UniProt Q79MP6). Description: IMP-1 metallo-beta-lactamase inhibitors, dose response, selectivity assay for VIM-2 inhibitor project, biochemical, epi-absorbance (AID 1920).
In experiment [15] the target is T3, Beta Lactamase (Pseudomonas aeruginosa, UniProt Q932Y6). The experiment can be described thus: VIM-2 inhibitor FRET-based artefact check, dose response, artefact control for selective VIM-2 inhibitor project, biochemical, FRET readout, CCF2 substrate (AID 1926).
Experiment [16] deals with T3, Beta Lactamase. The experiment can be described thus: VIM-2 metallo-beta-lactamase inhibitor potency, dose response, biochemical, epi-absorbance readout, selective inhibitors (AID 1919).
Experiment [17] has as its target T2, Beta-lactamase. Description: […] counterscreen for selective VIM-2 inhibitors: dose response biochemical high throughput screening assay to identify inhibitors of IMP-1 metallo-beta-lactamase.
In experiment [18] the target is T4, Scavenger receptor class B member 1 (Mus musculus, UniProt Q61009).
T4 sequence (Q61009 whole entry): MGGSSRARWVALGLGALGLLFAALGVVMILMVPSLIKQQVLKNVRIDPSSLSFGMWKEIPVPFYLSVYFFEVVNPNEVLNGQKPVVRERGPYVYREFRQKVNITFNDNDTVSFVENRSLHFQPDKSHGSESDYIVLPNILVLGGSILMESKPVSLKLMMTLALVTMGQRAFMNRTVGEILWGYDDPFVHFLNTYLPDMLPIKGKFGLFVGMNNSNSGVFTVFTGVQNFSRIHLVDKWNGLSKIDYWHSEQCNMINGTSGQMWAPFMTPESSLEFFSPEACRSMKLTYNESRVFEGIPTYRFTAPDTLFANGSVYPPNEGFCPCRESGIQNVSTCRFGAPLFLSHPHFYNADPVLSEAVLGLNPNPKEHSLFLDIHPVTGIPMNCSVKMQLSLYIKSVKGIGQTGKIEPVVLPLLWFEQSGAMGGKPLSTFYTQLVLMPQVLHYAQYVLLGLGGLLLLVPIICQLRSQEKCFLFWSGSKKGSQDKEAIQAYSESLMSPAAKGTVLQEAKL
The experiment can be described thus: inhibitors of SR-BI dependent HDL uptake, dose response, ldlA[mSR-BI] CHO cells, fluorescence plate reader, dry powder, set 9 (AID 623880). In kind it is functional, cell-based.

Experiment [19] concerns the target T4, Scavenger receptor class B member 1. Description: inhibitors of SR-BI-mediated HDL uptake, dose response, cell-based, ldlA[mSR-BI] CHO, DiI fluorescence, dry powder, set 10 (AID 624029). The experiment is classed as functional.

Usually IC50 stands for the midpoint of a concentration-inhibition curve. For orientation: AC50 means the concentration at which the activity in the assay is half-maximal. For orientation: EC50 means the concentration giving half of the maximal effect.

T1 sequence (Q96RJ0 whole entry): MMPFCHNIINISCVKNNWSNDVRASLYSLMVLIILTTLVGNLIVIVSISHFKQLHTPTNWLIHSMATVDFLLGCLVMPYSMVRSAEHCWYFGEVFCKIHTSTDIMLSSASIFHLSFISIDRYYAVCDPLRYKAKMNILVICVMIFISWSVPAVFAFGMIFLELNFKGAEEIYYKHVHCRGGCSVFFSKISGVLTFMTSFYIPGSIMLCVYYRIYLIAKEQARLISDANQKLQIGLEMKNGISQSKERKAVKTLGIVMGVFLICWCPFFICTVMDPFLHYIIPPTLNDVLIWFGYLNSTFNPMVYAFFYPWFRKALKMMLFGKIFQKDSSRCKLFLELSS
T2 sequence (Q79MP6 whole entry): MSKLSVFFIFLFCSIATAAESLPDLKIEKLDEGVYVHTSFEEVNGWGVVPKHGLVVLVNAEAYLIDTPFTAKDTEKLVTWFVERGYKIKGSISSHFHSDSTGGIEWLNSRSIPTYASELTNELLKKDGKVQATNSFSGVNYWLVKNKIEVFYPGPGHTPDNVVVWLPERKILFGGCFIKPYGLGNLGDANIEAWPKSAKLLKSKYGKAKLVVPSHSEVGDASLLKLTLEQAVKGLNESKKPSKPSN
T3 sequence (Q932Y6 whole entry): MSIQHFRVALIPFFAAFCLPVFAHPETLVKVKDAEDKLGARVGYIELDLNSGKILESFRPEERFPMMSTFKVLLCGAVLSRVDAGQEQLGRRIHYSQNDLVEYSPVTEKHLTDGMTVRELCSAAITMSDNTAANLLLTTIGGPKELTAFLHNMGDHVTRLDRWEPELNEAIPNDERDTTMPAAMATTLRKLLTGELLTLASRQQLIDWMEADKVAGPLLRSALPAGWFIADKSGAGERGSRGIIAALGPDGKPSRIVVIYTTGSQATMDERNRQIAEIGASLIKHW
Sequence of Delta-type opioid receptor (P41143 whole entry): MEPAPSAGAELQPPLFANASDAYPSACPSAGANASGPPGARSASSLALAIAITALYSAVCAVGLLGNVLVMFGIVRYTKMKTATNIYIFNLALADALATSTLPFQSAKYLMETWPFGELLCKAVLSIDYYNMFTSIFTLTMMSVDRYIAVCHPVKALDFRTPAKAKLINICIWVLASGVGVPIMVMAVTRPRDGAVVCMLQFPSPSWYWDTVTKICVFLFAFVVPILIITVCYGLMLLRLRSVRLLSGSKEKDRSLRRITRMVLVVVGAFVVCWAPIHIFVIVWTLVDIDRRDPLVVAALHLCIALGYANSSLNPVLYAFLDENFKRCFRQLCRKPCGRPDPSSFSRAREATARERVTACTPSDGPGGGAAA
Sequence of Beta-lactamase (Salmonella choleraesuis (strain SC-B67), UniProt Q5J463) (Q5J463 whole entry): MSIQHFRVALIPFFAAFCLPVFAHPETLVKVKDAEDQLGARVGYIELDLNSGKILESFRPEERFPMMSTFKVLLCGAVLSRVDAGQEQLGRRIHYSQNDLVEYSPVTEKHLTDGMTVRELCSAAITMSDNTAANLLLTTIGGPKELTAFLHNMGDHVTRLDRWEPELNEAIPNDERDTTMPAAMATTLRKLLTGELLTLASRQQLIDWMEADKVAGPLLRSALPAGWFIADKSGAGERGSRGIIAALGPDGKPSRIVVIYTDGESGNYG
Sequence of Protein Wnt-3a (P27467 whole entry): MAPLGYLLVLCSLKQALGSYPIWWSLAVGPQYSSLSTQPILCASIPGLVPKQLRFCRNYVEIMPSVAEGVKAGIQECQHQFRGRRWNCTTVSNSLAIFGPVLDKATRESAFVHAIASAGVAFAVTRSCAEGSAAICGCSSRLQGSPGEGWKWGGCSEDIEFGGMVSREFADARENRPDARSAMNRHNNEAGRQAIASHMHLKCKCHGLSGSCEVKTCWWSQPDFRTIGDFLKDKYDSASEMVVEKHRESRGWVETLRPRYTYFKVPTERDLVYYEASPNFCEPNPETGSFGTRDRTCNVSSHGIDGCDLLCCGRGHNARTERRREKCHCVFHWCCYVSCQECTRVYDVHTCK
Sequence of Fructose-bisphosphate aldolase (P9WQA3 whole entry): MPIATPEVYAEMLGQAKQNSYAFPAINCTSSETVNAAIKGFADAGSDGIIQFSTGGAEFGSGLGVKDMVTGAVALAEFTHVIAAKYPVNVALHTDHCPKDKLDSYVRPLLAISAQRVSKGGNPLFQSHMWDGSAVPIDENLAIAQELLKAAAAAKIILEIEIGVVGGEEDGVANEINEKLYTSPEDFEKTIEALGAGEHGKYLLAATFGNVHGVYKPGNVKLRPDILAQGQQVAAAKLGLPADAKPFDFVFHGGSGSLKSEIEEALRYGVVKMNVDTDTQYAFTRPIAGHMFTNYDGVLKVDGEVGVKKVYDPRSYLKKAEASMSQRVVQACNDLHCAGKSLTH
Sequence of Beta-galactosidase (Q8VNN2 whole entry): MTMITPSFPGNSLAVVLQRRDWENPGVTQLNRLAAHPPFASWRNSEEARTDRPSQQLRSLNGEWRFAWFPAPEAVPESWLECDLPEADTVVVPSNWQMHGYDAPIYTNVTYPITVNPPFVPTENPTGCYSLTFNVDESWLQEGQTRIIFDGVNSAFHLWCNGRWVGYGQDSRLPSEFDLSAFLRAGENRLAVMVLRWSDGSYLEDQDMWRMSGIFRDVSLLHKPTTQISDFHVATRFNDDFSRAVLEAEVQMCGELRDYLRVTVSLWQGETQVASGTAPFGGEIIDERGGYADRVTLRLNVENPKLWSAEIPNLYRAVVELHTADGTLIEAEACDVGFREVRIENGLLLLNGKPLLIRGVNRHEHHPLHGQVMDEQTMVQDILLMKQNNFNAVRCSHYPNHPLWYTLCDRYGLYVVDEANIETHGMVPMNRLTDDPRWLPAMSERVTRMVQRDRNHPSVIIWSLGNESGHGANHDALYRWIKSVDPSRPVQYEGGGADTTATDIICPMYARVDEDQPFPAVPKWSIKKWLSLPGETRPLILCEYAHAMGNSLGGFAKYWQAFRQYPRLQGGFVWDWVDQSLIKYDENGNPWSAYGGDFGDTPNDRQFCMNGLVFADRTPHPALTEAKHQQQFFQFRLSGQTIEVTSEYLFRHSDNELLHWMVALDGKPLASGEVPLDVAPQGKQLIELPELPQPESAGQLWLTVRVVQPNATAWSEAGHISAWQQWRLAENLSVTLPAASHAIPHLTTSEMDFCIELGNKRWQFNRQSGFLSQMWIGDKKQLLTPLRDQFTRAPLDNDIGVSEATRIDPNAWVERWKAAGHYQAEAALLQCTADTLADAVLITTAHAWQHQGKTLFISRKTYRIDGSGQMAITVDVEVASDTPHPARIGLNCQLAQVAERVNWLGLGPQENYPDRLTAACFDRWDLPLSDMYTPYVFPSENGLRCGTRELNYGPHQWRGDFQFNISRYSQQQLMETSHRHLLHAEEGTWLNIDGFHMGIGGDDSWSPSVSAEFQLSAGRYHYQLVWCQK
Sequence of Mu-type opioid receptor (P35372 whole entry): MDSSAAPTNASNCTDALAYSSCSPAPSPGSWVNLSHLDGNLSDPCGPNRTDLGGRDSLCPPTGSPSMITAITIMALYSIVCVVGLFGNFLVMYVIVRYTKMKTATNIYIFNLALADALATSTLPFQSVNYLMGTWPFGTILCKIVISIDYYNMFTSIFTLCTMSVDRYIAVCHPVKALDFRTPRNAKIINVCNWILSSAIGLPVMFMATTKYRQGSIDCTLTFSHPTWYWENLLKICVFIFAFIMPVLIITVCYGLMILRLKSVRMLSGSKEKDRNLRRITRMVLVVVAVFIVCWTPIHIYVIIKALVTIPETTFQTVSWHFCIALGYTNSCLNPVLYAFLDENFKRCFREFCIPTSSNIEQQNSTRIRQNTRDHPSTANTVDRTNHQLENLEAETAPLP

`COc1ccc(N2CCN(C(=O)c3cc(-c4ccc(F)cc4)[nH]c3C)CC2)cc1`: the IC50 in experiment [1] is > 80 µM (inactive).
As for `C[C@@H]1CN([C@@H](C)CO)C(=O)c2cc(NC(=O)Nc3ccc(F)cc3)ccc2O[C@@H]1CN(C)CC1CCCCC1`, the AC50 in [2] is 43.4 µM (active).
For `Cc1cccc(CSC(=N)N)c1`, the IC50 was > 30 µM (inactive) in experiment [3] and 16.9 µM (inactive) in experiment [4]. Besides, the half-maximal effective concentration (EC50) is 1.21 µM (active) in experiment [5] and > 30 µM (inactive) in experiment [6].
Turning to `COC(=O)c1cc(Br)cnc1N1CCC(NC2CCCCCC2)CC1`, the IC50 in experiment [7] is 4.2 µM (active); in [8] it was 12 µM (inactive).
`CN(C)c1nc(OCc2ccccc2)c2ncc(=O)[nH]c2n1`: the IC50 in [9] is 2.82 µM (active).
In the case of `O=S(=O)(NC[C@@H]1[C@@H](c2ccccc2)[C@H](CO)N1CC1CC1)c1ccccc1`, the AC50 in experiment [10] and in experiment [11] was > 52 µM (inactive) throughout.
With `O=C(Nc1cc(N2CCCCC2)ncn1)c1ccccc1Cl`, the IC50 in [12] is > 21.8 µM (inactive).
For `CC(=C/c1ccccc1)/C=N/n1c(C)nnc1S`, the IC50 was > 59.6 µM (inactive) in [13]; > 59.6 µM (inactive) in experiment [14]; 2.5 µM (active) in experiment [15]; 9.98 µM (active) in [16]; > 59.6 µM (inactive) in [17].
As for `COc1ccc2c(c1)CC(C1(O)C(=O)N(C)c3ccccc31)C2=O` (centres undefined), the AC50 in experiment [18] and in experiment [19] was > 70 µM (inactive) throughout.
